Results taken from patent US11912699B2, “Tau-protein targeting compounds and associated” (Arvinas Operations, Inc., priority 2019, dated 2024).

Legend:
[1] = test system: seeding competent tau species (MC1-positive seeded conformational tau) in ChoK1-Tau P301L cells; experiment: Tg2508 ex-vivo seeding of P301L CHO cells, MC1 high content image analysis; assay type: cell-based, Tg2508 mice; conditions: single parenteral treatment 30 mpk, 24 hours
Description: FIGS. 4A, 4B, and 4C. […] Briefly, ChoK1-Tau P301L cells were treated with K18 tau preformed fibrils (PFFs) or extracts from Tg2508 brain samples. Seeded conformational tau species were detected by MC1 antibody positivity and quantified as MC1 spot average intensity per cell on the Image Express high content platform.

[2] = target: T1, pathologic tau (Homo sapiens, UniProt P10636, P618L); experiment: Pathologic tau in Tg2508 brain after intravenous dosing, measured by Wes capillary gel electrophoresis; assay type: in vivo, Tg2508 tauopathy mice; conditions: 15, 3, 1 or 0.3 mpk intravenous, 24 hours post dose, Tg2508 hippocampi
T1 construct: tissue Taconic; host or cells: cortex / hippocampus of Tg2508 transgenic mice, sarkosyl-insoluble fraction or brain extract
Description: (§1) FIGS. 3A and 3B. Exemplary bifunctional compounds degrade greater than 95% of pathologic tau in Tg2508 brain following parenteral administration in vivo. Tg2508 tauopathy mice were dosed (12 animals per group) with either 15 mpk exemplary compound 82 or 30 mpk exemplary compound 382 or vehicle intravenously. Twenty-four hours post dose, the animals were sacrificed, and cortical brain samples were analyzed for pathologic tau by Wes capillary gel electrophoresis. FIG. 3A is a graphical representation of the averaged analysis of pathologic tau shown for each animal tested comparing lanes from the vehicle control to either exemplary compound 82 or exemplary compound 382 as indicated in FIG. 3B. Greater than 95% reduction of pathologic tau was observed following treatment of the Tg2508 animals with either exemplary compound 82 or exemplary compound 382.
FIG. 5. […] Tg2508 animals were dosed with either 15, 3, 1 or 0.3 mpk of bifunctional compound 382 intravenously, as described in materials and methods. Hippocampal extracts were analyzed for either pathologic tau levels by Wes or bifunctional compound levels at each given dose as shown.

[3] = target: T2, Tau P301L (Homo sapiens, UniProt P10636, P618L); experiment: In vitro tau degradation assay in CHOK1 Tau P301L cells (sarkosyl insoluble tau, WES); assay type: cell-based; conditions: CHO-K1; remaining tau protein in sarkosyl insoluble pellet; CHOK1 Tau P301L cells treated 48 hours with test compound at 1 μM, doxycycline removed for the last 24 hours; relative to DMSO doxycycline control; read-out: Tau Protein Degradation effect at 1 μM
T2 construct: expressed in transfected cells
Summary of the method: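 Sarkosyl-insoluble pellet tau, measured by WES capillary immunoassay (Tau1 antibody), was scored against DMSO doxycycline control as ≤50% or >50% remaining. Cells were CHOK1 clone D1 expressing Tau P301L under doxycycline (1 μg/ml), given 1 μM compound for 48 h with doxycycline withdrawn during the last 24 h.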

[4] = target: T3, seeded conformational tau (MC1) (Homo sapiens, UniProt P10636, P618L); experiment: Tg2508 ex-vivo tau seeding assay in ChoK1-Tau P301L cells (MC1 high content imaging); assay type: cell-based, mice; conditions: single parenteral treatment 30 mpk, 24 hours; MC1 spot intensity in ChoK1-Tau P301L cells
T3 construct: tissue Taconic; host or cells: cortex / hippocampus of Tg2508 transgenic mice, sarkosyl-insoluble fraction or brain extract
Description: FIGS. 4A, 4B, and 4C. Briefly, ChoK1-Tau P301L cells were treated with K18 tau preformed fibrils (PFFs) or extracts from Tg2508 brain samples (as described in Materials and Methods; PFF generation modified from Holmes et al. PNAS. 2014. Proteopathic tau seeding predicts tauopathy in vivo. Oct. 111 (41) E4376-85). Seeded conformational tau species are detected by MC1 antibody positivity and quantified as MC1 spot average intensity per cell on the Image Express™ high content platform.
In vitro tau Seeding Assay for FIGS. 4A, 4B, and 4C. Tau P301L T-Rex CHO Cells were plated on BioCoat Collagen 96 well microplates that were also poly-D-lysine coated. Media was removed, cells were washed with DPBS, trypsinized and plated at 50,000 cells per mL with Doxycycline […] and no doxycycline control for 24 hours. […]

[5] = target: T1, pathologic tau; experiment: In vivo tau degradation assay in Tg2508 tauopathy mice (sarkosyl insoluble tau, Wes); conditions: Tg2508 mice, 15, 3, 1 or 0.3 mpk parenterally, 24 hours post dose
Description: as §1, with “3B.” for “3B. Exemplary bifunctional compounds degrade greater than 95% of pathologic tau in Tg2508 brain following parenteral administration in vivo.”, “parenterally, as described below (Lewis et al., 2000).” for “intravenously.”, “sacrificed” for “sacrificed,”
FIG. 5. Tg2508 animals were dosed with either 15, 3, 1 or 0.3 mpk of bifunctional compound exemplary compound 382 parenterally, as described in materials and methods. Hippocampal extracts were analyzed for either pathologic tau levels by Wes or bifunctional compound levels at each given dose as shown.
In vivo tau Degradation Assay for FIGS. 3A, 3B and 5. […] Hetero-bifunctional degrader molecule concentrations were determined using standand liquid chromatography and mass spectroscopy methodologies (Drumetix).

T1 sequence (P10636 1-383 isoform P10636-6 P243L): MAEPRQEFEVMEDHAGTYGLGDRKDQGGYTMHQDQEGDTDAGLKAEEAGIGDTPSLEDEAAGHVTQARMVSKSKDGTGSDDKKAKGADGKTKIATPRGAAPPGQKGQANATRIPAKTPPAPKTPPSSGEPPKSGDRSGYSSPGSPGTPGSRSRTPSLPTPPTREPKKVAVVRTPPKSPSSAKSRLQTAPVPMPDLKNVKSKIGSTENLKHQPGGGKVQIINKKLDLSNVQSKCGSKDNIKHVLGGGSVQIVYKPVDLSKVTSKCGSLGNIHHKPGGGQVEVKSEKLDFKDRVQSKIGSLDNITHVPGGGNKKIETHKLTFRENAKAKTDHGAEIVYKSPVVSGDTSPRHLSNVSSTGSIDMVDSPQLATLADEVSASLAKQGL
T2 sequence (P10636 1-441 isoform P10636-8 P301L): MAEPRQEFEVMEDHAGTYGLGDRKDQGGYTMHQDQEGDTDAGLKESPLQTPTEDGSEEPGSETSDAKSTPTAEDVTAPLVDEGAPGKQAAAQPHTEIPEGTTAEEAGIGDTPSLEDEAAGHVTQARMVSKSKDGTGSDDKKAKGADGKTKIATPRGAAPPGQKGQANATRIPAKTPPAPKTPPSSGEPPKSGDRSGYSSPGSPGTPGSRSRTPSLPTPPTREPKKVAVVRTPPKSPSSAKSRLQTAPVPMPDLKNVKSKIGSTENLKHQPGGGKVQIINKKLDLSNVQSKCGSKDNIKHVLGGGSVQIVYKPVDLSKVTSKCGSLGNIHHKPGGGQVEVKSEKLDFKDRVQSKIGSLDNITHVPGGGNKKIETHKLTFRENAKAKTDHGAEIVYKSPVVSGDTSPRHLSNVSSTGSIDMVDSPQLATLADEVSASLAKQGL
T3 sequence (P10636 1-383 isoform P10636-6 P243L): as the sequence (P10636 1-383 isoform P10636-6 P243L) above

remaining activity at 1 µM [3]: < 50%
seeding competent tau species in Tg2508 cortical brain extracts [4]: effectively degraded
concentration of tau protein in hippocampi [5]: dose-dependently reduced
SMILES: Cn1c2ccncc2c2ccc(-c3ccc(N4CC(OC5CCN(CCCCCOc6ccc7c(c6)C(=O)N(C6CCC(=O)NC6=O)C7=O)CC5)C4)nc3)cc21 (centres unmarked) [Compound 382, 2-(2,6-dioxopiperidin-3-yl)-5-((5-(4-((1-(5-(5-methyl-5H-pyrido[4,3-b]indol-7-yl)pyridin-2-yl)azetidin-3-yl)oxy)piperidin-1-yl)pentyl)oxy) isoindoline-1,3-dione]
seeding competent tau species in Tg2508 cortical brain extracts (MC1 spot average intensity per cell) [1]: effectively degraded
pathologic tau levels in hippocampal extracts [2]: A clear dose-response relationship is demonstrated
